Test system: T. cruzi
Test: Oxidative modification (carbonylation) of plasma proteins in chagasic rats treated with PBN and/or BZ
Type: in vivo, rat
Details: chagasic rat plasma; 5 of 11 carbonylated proteins (CFB, CFH, SERPRINA1, SERPINC1, PLG)
Description: Certain embodiments include biomarkers identified in a previous study. Parasite persistence and oxidative damage in the heart are known to be of pathological significance during Chagas disease (Zacks et al., (2005) An Acad Bras Cienc, 77, 695-715; Gupta et al., (2009) Interdiscip Perspect Infect Dis, 2009, 190354). […] In the previous study the inventors identified 92 proteins that were differentially expressed or oxidized in chagasic plasma. Functional analysis allocated a majority of these proteins to inflammation/immunity and lipid metabolism categories, and to molecular pathways associated with cardiovascular dysfunction, e.g., myocardial infarction, hypertrophy, and fibrosis, and pulmonary embolism and hypertension. Some proteins in chagasic rats treated with PBN and/or BZ were allocated to curative pathways (immune regulation and cardiac remodeling). The 2D-GE results were validated by Western blotting. […] Increased plasma levels of GSN, MYL2, and VIM were directly correlated with the severity of cardiac disease in human chagasic patients. […] These findings have utility in diagnosing disease severity and designing suitable therapy for management of human chagasic patients. […]

With `CC(C)(C)/[N+]([O-])=C/c1ccccc1` [PBN] the “oxidative modification of inflammation-associated plasma proteins” value was “prevented the oxidative modification of five of these proteins”.

From patent US9696323B2, “Biomarkers for chagas disease related cardiomyopathy” (THE BOARD OF REGENTS OF THE UNIVERSITY OF TEXAS SYSTEM, priority 2013, dated 2017)
